Assay [1] can be described thus: Inhibition of wild type EGFR in human MCF7 cells assessed as cell growth inhibition measured after 72 hrs by Celltiter-Glo luminescent cell viability assay.
The nature of assay [2]: Inhibition of wild type EGFR in human HepG2 cells assessed as cell growth inhibition measured after 72 hrs by Celltiter-Glo luminescent cell viability assay.
Assay [3] is described as follows: Inhibition of wild type EGFR in human HT-29 cells assessed as cell growth inhibition measured after 72 hrs by Celltiter-Glo luminescent cell viability assay. In general terms: In ATP-based viability assays light output follows the ATP content of the culture.
A short description of assay [4]: Inhibition of wild type EGFR in human A-431 cells assessed as cell growth inhibition measured after 72 hrs by Celltiter-Glo luminescent cell viability assay.

Where only a bound is given, the exact number is not on record here.

IC50 data for one molecule are collected here from BindingDB's records for doi:10.1016/j.ejmech.2020.112522 (Xuzhou Medical University, 2020).

A word on the IC50: it is the concentration needed to halve the response being measured. Consider `C=CCSSCCC(=O)OCCCOc1cc2ncnc(Nc3cccc(Br)c3)c2cc1OC`, for which the IC50 in assay [1] is 7.31 µM; in assay [2], above 10 µM; in assay [3], above 10 µM; in assay [4], 6.7 µM.
